Assay results published in US20240300980A1, “HETEROCYCLIC COMPOUNDS AS KRAS INHIBITOR, AND PREPARATION THEREFOR AND USE THEREOF IN TREATMENT” (SHANGHAI KECHOW PHARMA, INC., priority 2021, published 2024).

Each compound was assayed on AGS cells (KRAS^G12D) (assay: Detection of cell proliferation in vitro by MTT/MTS method (cell activity experiment)). Settings: AGS cells; MTT/MTS; 3 days of drug treatment; read-out: AGS IC50.
Type: cell-based
Procedure, shortened: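 After 3-day compound exposure (final DMSO 0.5%), viability of AGS (KRAS G12D) cells, plated 1000/well one day before dosing, was measured at 490 nm following 4 h MTT or MTS incubation. IC50 was fitted from dose–effect curves relative to DMSO-treated wells.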

| Structure (SMILES) | IC50 [nM] |
| --- | --- |
| CCc1c(F)ccc2cc(O)cc(-c3ccc4c(N5C[C@H]6CC[C@@H](C5)[C@@H]6F)nc(OC[C@@]56CCCN5C[C@H](F)C6)nc4c3F)c12 [Example 124, 5-ethyl-6-fluoro-4-(8-fluoro-4-((1R,5S, 8R)-8-fluoro-3-azabicyclo[3.2.1]octan-3-yl)-2-(((2R,7aS)-2-fluorotetrahydro-1H-pyrrolizin-7a(5H)-yl)methoxy)quinazolin-7-yl)naphthalen-2-ol] | > 2500 |
| C#Cc1c(F)ccc2cc(O)cc(-c3ccc4c(N5C[C@H]6CC[C@@H](C5)[C@@H]6O)nc(OC[C@@]56CCCN5C[C@H](F)C6)nc4c3F)c12 [Example 118, (1R,5S,8R)-3-(7-(8-ethynyl-7-fluoro-3-hydroxynaphthalen-1-yl)-8-fluoro-2-(((2R,7aS)-2-fluorotetrahydro-1H-pyrrolizin-7a(5H)-yl)methoxy)quinazolin-4-yl)-3-azabicyclo [3.2.1]octan-8-ol] | > 2500 |

Same assay, conditions: Homo sapiens, AGS, 72 h, AGS cells; MTT/MTS; 3 days of drug treatment; read-out: AGS IC50

| Structure (SMILES) | IC50 [nM] |
| --- | --- |
| C#Cc1nccc2cc(O)cc(-c3ncc4c(NCC5(N(C)C)CCC5)nc(OC[C@@]56CCCN5C[C@H](F)C6)nc4c3F)c12 [Example 424, 8-(4-(((1-(dimethylamino)cyclobutyl)methyl)amino)-8-fluoro-2-(((2R,7aS)-2-fluorotetrahydro-1H-pyrrolizin-7a(5H)-yl)methoxy)pyrido[4,3-d]pyrimidin-7-yl)-1-ethynylisoquinolin-6-ol] | 30 |
| CCc1c(F)ccc2cc(O)cc(-c3ncc4c(N5C[C@H]6CC[C@@H](C5)C6(F)F)nc(OC[C@@]56CCCN5C[C@H](F)C6)nc4c3F)c12 [Example 31, 4-(4-((1R,5S)-8,8-difluoro-3-azabicyclo [3.2.1]octan-3-yl)-8-fluoro-2-(((2R,7aS)-2-fluorotetrahydro-1H-pyrrolizin-7a(5H)-yl)methoxy)pyrido[4,3-d]pyrimidin-7-yl)-5-ethyl-6-fluoronaphthalen-2-ol] | > 2500 |
| C#Cc1cc2c(N3C[C@H]4CC[C@@H](C3)N4)nc(OC[C@@]34CCCN3C[C@H](F)C4)nc2c(F)c1-c1cc(O)cc2c1C(CC)CC2 (stereo partly drawn) [Example 371, 7-(4-((1R,5S)-3,8-diazabicyclo[3.2.1]octan-3-yl)-6-ethynyl-8-fluoro-2-(((2R,7aS)-2-fluorotetrahydro-1H-pyrrolizin-7a(5H)-yl)methoxy)quinazolin-7-yl)-1-ethyl-2,3-dihydro-1H-inden-5-ol] | 85 |
| C#Cc1cccc2cc(O)cc(-c3ccc4c(N5C[C@H]6CC[C@@H](C5)N6)c(C#N)c(OC[C@@]56CCCN5C[C@H](F)C6)nc4c3F)c12 [Example 182, 4-((1R,5S)-3,8-diazabicyclo[3.2.1]octan-3-yl)-7-(8-ethynyl-3-hydroxynaphthalen-1-yl)-8-fluoro-2-(((2R,7aS)-2-fluorotetrahydro-1H-pyrrolizin-7a(5H)-yl)methoxy)quinoline-3-carbonitrile] | 533 |
| CC[C@@H]1CCc2cc(O)cc(-c3ncc4c(N5CC6CCC(C5)N6)nc(OC[C@@]56CCCN5C[C@H](F)C6)nc4c3F)c21 (single isomer, unassigned) [Example 221, (R)-7-(4-((1R,5S)-3,8-diazabicyclo[3.2.1]octan-3-yl)-8-fluoro-2-(((2R,7aS)-2-fluorotetrahydro-1H-pyrrolizin-7a(5H)-yl)methoxy)pyrido[4,3-d]pyrimidin-7-yl)-1-ethyl-2,3-dihydro-1H-inden-5-ol or (S)-7-(4-((1R,5S)-3,8-diazabicyclo[3.2.1]octan-3-yl)-8-fluoro-2-(((2R,7aS)-2-fluorotetrahydro-1H-pyrrolizin-7a(5H)-yl)methoxy)pyrido[4,3-d]pyrimidin-7-yl)-1-ethyl-2,3-dihydro-1H-inden-5-ol] | 875 |
| C#Cc1c(F)ccc2cccc(-c3ccc4c(N5C[C@H]6CC[C@@H](C5)N6)nc(OC[C@]56CCCN5[C@@H](COC(=O)N(C)C)CC6)nc4n3)c12 [Example 147, ((3R,7aR)-7a-(((4-((1R, 5S)-3,8-diazabicyclo [3.2.1]octan-3-yl)-7-(8-ethynyl-7-fluoronaphthalen-1-yl)pyrido[2,3-d]pyrimidin-2-yl)oxy)methyl)hexahydro-1H-pyrrolizin-3-yl)methyl dimethylcarbamate] | > 2500 |
| C#Cc1c(F)ccc2cc(O)cc(-c3ncc4c(N5C[C@H]6CC[C@@H](C5)N6)nc(OCC56CC5CCN6C)nc4c3F)c12 (stereo partly drawn) [Example 77, 4-(4-((1R,5S)-3,8-diazabicyclo[3.2.1]octan-3-yl)-8-fluoro-2-((2-methyl-2-azabicyclo[3.1.0]hexan-1-yl)methoxy)pyrido [4,3-d]pyrimidin-7-yl)-5-ethynyl-6-fluoronaphthalen-2-ol] | > 2500 |
| CCc1c(F)ccc2cc(O)cc(-c3cnc4c(N5C[C@H]6CC[C@@H](C5)N6)nc(OC[C@@]56CCCN5C[C@H](F)C6)nc4c3)c12 [Example 201, 4-(4-((1R,5S)-3,8-diazabicyclo[3.2.1]octan-3-yl)-2-(((2R,7aS)-2-fluorotetrahydro-1H-pyrrolizin-7a(5H)-yl)methoxy)pyrido[3,2-d]pyrimidin-7-yl)-5-ethyl-6-fluoronaphthalen-2-ol] | > 2500 |
| C#Cc1c(F)ccc2cc(O)cc(-c3ccc4c(N5C[C@H]6CC[C@@H](C5)N6)c(C#N)c(OC[C@@]56CCCN5C[C@H](F)C6)nc4c3)c12 [Example 171, 4-((1R,5S)-3,8-diazabicyclo[3.2.1]octan-3-yl)-7-(8-ethynyl-7-fluoro-3-hydroxynaphthalen-1-yl)-2-(((2R,7aS)-2-fluorotetrahydro-1H-pyrrolizin-7a(5H)-yl)methoxy)quinoline-3-carbonitrile] | 1240 |
| CSC1CCCc2cc(O)cc(-c3ncc4c(N5C[C@H]6CC[C@@H](C5)N6)nc(OC[C@@]56CCCN5C[C@H](F)C6)nc4c3F)c21 (stereo partly drawn) [Example 426, 4-(4-((1R,5S)-3,8-diazabicyclo[3.2.1]octan-3-yl)-8-fluoro-2-(((2R,7aS)-2-fluorotetrahydro-1H-pyrrolizin-7a(5H)-yl)methoxy)pyrido[4,3-d]pyrimidin-7-yl)-5-(methylthio)-5,6,7,8-tetrahydronaphthalen-2-ol] | 15 |
| Oc1cc(-c2ncc3c(N4C[C@H]5CC[C@@H](C4)S5)nc(OC[C@@]45CCCN4C[C@H](F)C5)nc3c2F)c2c(F)c(F)ccc2c1 [Example 27, 4-(4-((1R,5S)-8-thia-3-azabicyclo[3.2.1]octan-3-yl)-8-fluoro-2-(((2R,7aS)-2-fluorotetrahydro-1H-pyrrolizin-7a(5H)-yl)methoxy)pyrido[4,3-d]pyrimidin-7-yl)-5,6-difluoronaphthalen-2-ol] | 295 |
| C#Cc1c(F)ccc2cc(O)cc(N3CCc4c(nc(OC[C@]56CCCN5[C@@H](COC(=O)N(C)C)CC6)nc4N4C[C@H]5CC[C@@H](C4)N5)C3)c12 [Example 209, ((3R,7aR)-7a-(((4-((1R,5S)-3,8-diazabicyclo[3.2.1]octan-3-yl)-7-(8-ethynyl-7-fluoro-3-hydroxynaphthalen-1-yl)-5,6,7,8-tetrahydropyrido[3,4-d]pyrimidin-2-yl)oxy)methyl)hexahydro-1H-pyrrolizin-3-yl)methyl dimethylcarbamate] | 35 |
| CCc1c(F)ccc2cc(O)cc(-c3ccc4c(N5C[C@H]6CC[C@@H](C5)N6)nc(OCC5(CN6CCCC6)CC5)nc4c3F)c12 [Example 100, 4-(4-((1R,5S)-3,8-diazabicyclo[3.2.1]octan-3-yl)-8-fluoro-2-((1-(pyrrolidin-1-ylmethyl)cyclopropyl)methoxy)quinazolin-7-yl)-5-ethyl-6-fluoronaphthalen-2-ol] | 21 |
| N#Cc1c(OC[C@@]23CCCN2C[C@H](F)C3)nc2c(F)c(-c3cc(O)cc4ccc(F)c(F)c34)ncc2c1N1C[C@H]2CC[C@@H](C1)N2 [Example 193, 4-((1R,5S)-3,8-diazabicyclo[3.2.1]octan-3-yl)-7-(7,8-difluoro-3-hydroxynaphthalen-1-yl)-8-fluoro-2-(((2R,7aS)-2-fluorotetrahydro-1H-pyrrolizin-7a(5H)-yl)methoxy)-1,6-naphthyridine-3-carbonitrile] | 125 |
| C#Cc1c(F)ccc2cc(O)cc(-c3ccc4c(N5CC6CCCNC6C5)nc(OC[C@@]56CCCN5C[C@H](F)C6)nc4c3F)c12 (stereo partly drawn) [Example 112, 5-ethynyl-6-fluoro-4-(8-fluoro-2-(((2R,7aS)-2-fluorotetrahydro-1H-pyrrolizin-7a(5H)-yl)methoxy)-4-(octahydro-6H-pyrrolo[3,4-b]pyridin-6-yl)quinazolin-7-yl) naphthalen-2-ol] | > 2500 |
| C#Cc1c(F)ccc2cc(O)cc(-c3ncc4c(N5CC(C#N)C5)nc(OC[C@@]56CCCN5C[C@H](F)C6)nc4c3F)c12 [Example 69, 1-(7-(8-ethynyl-7-fluoro-3-hydroxynaphthalen-1-yl)-8-fluoro-2-(((2R, 7aS)-2-fluorotetrahydro-1H-pyrrolizin-7a(5H)-yl)methoxy)pyrido[4,3-d]pyrimidin-4-yl) azetidine-3-carbonitrile] | 411 |
| Oc1cc2c(c(-c3ncc4c(N5C[C@H]6CC[C@@H](C5)N6)nc(OC[C@@]56CCCN5C[C@H](F)C6)nc4c3F)c1)C(CF)CCC2 (stereo partly drawn) [Example 262, 4-(4-((1R,5S)-3,8-diazabicyclo[3.2.1]octan-3-yl)-8-fluoro-2-(((2R,7aS)-2-fluorotetrahydro-1H-pyrrolizin-7a(5H)-yl)methoxy)pyrido[4,3-d]pyrimidin-7-yl)-5-(fluoromethyl)-5,6,7,8-tetrahydronaphthalen-2-ol] | 305 |
| CCCC1CCc2cc(O)cc(-c3ncc4c(N5C[C@H]6CC[C@@H](C5)N6)nc(OC[C@@]56CCCN5C[C@H](F)C6)nc4c3F)c21 (stereo partly drawn) [Example 242, 7-(4-((1R,5S)-3,8-diazabicyclo[3.2.1]octan-3-yl)-8-fluoro-2-(((2R,7aS)-2-fluorotetrahydro-1H-pyrrolizin-7a(5H)-yl)methoxy)pyrido[4,3-d]pyrimidin-7-yl)-1-propyl-2,3-dihydro-1H-inden-5-ol] | 34 |
